In experiment [1] the target is T1, human dipeptidyl peptidase-I (Homo sapiens, UniProt P53634). The experiment can be described thus: Effect of protease inhibitors on DPPI activity (purified enzyme). It is filed as biochemical. More on the design: Human DPPI is now established to constitute a 200,000 Da glycoprotein with 24,000 Da subunits; from tissue; host or cells: human cadaveric spleen. How it is done:
Note. Purified human dipeptidyl peptidaseI (0.4 μg) was preincubated
with each of the inhibitors at the stated concentration for 15 min at
37° C.. Each sample was diluted 3fold with assay buffer containing
substrate and incubated for an additional 20 min.
Target sequence in this assay (P53634 231-394 limits assumed): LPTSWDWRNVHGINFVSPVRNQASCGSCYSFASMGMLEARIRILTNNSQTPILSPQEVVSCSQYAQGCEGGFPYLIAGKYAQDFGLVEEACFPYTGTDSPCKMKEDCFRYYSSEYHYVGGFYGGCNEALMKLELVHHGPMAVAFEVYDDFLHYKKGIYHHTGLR
Target sequence in this assay (P53634 25-134 limits assumed): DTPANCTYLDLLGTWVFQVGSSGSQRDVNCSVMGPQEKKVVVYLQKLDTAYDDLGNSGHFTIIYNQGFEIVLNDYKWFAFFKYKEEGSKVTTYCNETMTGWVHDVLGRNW
Target sequence in this assay (P53634 395-463 limits assumed): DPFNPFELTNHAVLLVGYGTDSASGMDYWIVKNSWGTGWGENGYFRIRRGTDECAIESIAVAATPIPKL

In a further experiment the target is DPPI (Homo sapiens, UniProt P53634). The experiment can be described thus: Substrate specificity of human DPPI: hydrolysis of synthetic peptide substrates. It is filed as biochemical. More on the design: Human DPPI is now established to constitute a 200,000 Da glycoprotein with 24,000 Da subunits; from tissue; host or cells: human cadaveric spleen; unit not given here. An excerpt: The specificity of human DPPI was studied using a variety of synthetic peptide substrates. These substrates appear in Table 5.
Substrates with blocked amino-termini, with proline at the P1 position, arginine at the P2, or containing only single amino acids, were not hydrolyzed. […] The amino-terminal sequence of bovine α-casein, Arg--Pro, prohibits the processive cleavage of amino-terminal dipeptides from this protein and therefore should increase the ability to specifically detect endoproteolytic activity, if present.

The next experiment concerns NK cells. The experiment can be described thus: Depletion of NK cells by dipeptide esters. It is filed as cell-based.
Experiment [2] concerns the target T1, human dipeptidyl peptidase-I.
Experiment [3] addresses murine granzyme A proenzyme (murine) (UniProt P11032). The note with it: scale: Δabsorbance410/hour per cells.
[4] abbreviates: inhibitor 1 mM, preincubated 15 min at 37° C., read-out: Percentage control activity.
The mark [5] stands for this setting: inhibitor 1 mM, preincubated 15 min at 37° C.

Where two headings read alike, the source gives them in different places. *1 amine or outer side, *2 acyl side, *3 side chain or, on linkers, in order; H or OH if unused. Where a SMILES comes first, the peptide text is derived from it. The star is where a group is joined. pNA = O=[N+]([O-])c1ccc(N*)cc1; AMC = Cc1cc(=O)oc2cc(N*)ccc12; Suc = O=C(CCC(=O)[*:2])[*:1]; βNA = c1ccc2cc(N*)ccc2c1; Cbz = O=C(OCc1ccccc1)*

DPPI, sequence (P53634 231-394 limits assumed): as the sequence (P53634 231-394 limits assumed) above
DPPI, sequence (P53634 25-134 limits assumed): as the sequence (P53634 25-134 limits assumed) above
DPPI, sequence (P53634 395-463 limits assumed): as the sequence (P53634 395-463 limits assumed) above

In the case of `c1cnc2c(c1)ccc1cccnc12` [1,10-Phenanthroline], the remaining activity at 1000 µM in experiment [1] (setting [4]) turned out to be 98%.
Regarding `c1ccc(SSc2ccccn2)nc1` [2,2'-Dithiodipyridine], in experiment [1] (inhibitor 400 μM, preincubated 15 min at 37° C., read-out: Percentage control activity), the remaining activity at 400 µM was found to be 9%. For the same compound, the “effect on DPPI activity (in words)” value in experiment [1] (screening conditions pH 5.5) is “inhibited”.
As for `CC(N)C(=O)NC(C)C(=O)NC(C(=O)NC(C)C(=O)Nc1ccc([N+](=O)[O-])cc1)C(C)C` (stereo not drawn) [Ala-Ala-Val-Ala-pNA] (H-AAVA-pNA; configuration not given here), the “hydrolysis of substrate peptide by human DPPI” value (from here on “hydrolysis of substrate peptide”) at DPPI (substrate concentration 100 μM) and at DPPI (substrate concentration 500 μM) was 120 each time.
With `C[C@H](N)C(=O)N[C@@H](C)C(=O)Nc1ccc([N+](=O)[O-])cc1` [Ala-Ala-pNA] (H-Ala-Ala-pNA), the “hydrolysis of substrate peptide” value on DPPI (substrate concentration 100 μM) worked out at 380; on DPPI (substrate concentration 500 μM), 1000.
For the compound `C[C@H](N)C(=O)Nc1ccc2ccccc2c1` [Ala-βNA], the “hydrolysis of substrate peptide” value on DPPI (substrate concentration 100 μM) and on DPPI (substrate concentration 500 μM) was 0 throughout.
As to `N=C(N)NCCC[C@H](NC(=O)[C@@H](N)CCCNC(=N)N)C(=O)Nc1ccc2ccccc2c1` [Arg-Arg-βNA] (H-Arg-Arg-βNA), the “hydrolysis of substrate peptide” value at DPPI (substrate concentration 100 μM) and at DPPI (substrate concentration 500 μM) was 0 in each case.
As for `NC(N)=NCCC[C@H](N)C(=O)Nc1ccc2ccccc2c1` [Arg-βNA], the “hydrolysis of substrate peptide” value on DPPI (substrate concentration 100 μM) and on DPPI (substrate concentration 500 μM) was 0 throughout.
Consider `C[C@H](NC(=O)[C@@H](N)CC(=O)O)C(=O)Nc1ccc2ccccc2c1` [Asp-Ala-βNA] (H-Asp-Ala-βNA), for which the “hydrolysis of substrate peptide” value is given as 250 on DPPI (substrate concentration 100 μM) and 1000 on DPPI (substrate concentration 500 μM).
`CC(C)C[C@H](NC(=O)[C@@H](O)[C@H](N)Cc1ccccc1)C(=O)O` [Bestatin]: in experiment [1] (inhibitor 500 μg/ml, preincubated 15 min at 37° C., read-out: Percentage control activity), the remaining activity at 500 µg/mL amounted to 103%. Moreover, in experiment [1] (screening conditions pH 5.5), the “effect on DPPI activity (in words)” value is “no effect”.
With `NC(N)=NCCC[C@H](NC(=O)OCc1ccccc1)C(=O)N[C@@H](CCCN=C(N)N)C(=O)Nc1ccc2ccccc2c1` [CBZ-Arg-Arg-βNA] (Cbz-Arg-Arg-βNA), the “hydrolysis of substrate peptide” value on DPPI (substrate concentration 100 μM) and at DPPI (substrate concentration 500 μM) was 0 in each case.
For the compound `N=C(N)NCCCC(NC(=O)OCc1ccccc1)C(=O)Nc1ccc2ccccc2c1` (stereo not drawn) [CBZ-Arg-βNA], the “hydrolysis of substrate peptide” value on DPPI (substrate concentration 100 μM) and at DPPI (substrate concentration 500 μM) was 0 each time.
For `Cc1cc(=O)oc2cc(NC(=O)[C@H](CCCN=C(N)N)NC(=O)[C@@H]3CCCN3C(=O)CNC(=O)OCc3ccccc3)ccc12` [CBZ-Gly-Pro-Arg-AMC] (Cbz-Gly-Pro-Arg-{AMC}), the “hydrolysis of substrate peptide” value at DPPI (substrate concentration 100 μM) and on DPPI (substrate concentration 500 μM) was 0 each time.
As for `Cc1cc(=O)oc2cc(NC(=O)C(CCCCN)NC(=O)OCc3ccccc3)ccc12` (stereo not drawn) [CBZ-Lys-AMC], the “hydrolysis of substrate peptide” value on DPPI (substrate concentration 100 μM) and on DPPI (substrate concentration 500 μM) was 0 in each case.
Consider `O=C(NC(Cc1ccccc1)C(=O)Nc1ccc2ccccc2c1)OCc1ccccc1` (stereo not drawn) [CBZ-Phe-βNA], for which the “hydrolysis of substrate peptide” value at DPPI (substrate concentration 100 μM) and on DPPI (substrate concentration 500 μM) was 0 throughout.
As for `COc1cc(NC(=O)[C@H](CCCN=C(N)N)NC(=O)[C@H](CC(C)C)NC(=O)[C@@H](NC(=O)OCc2ccccc2)C(C)C)cc2ccccc12` [CBZ-Val-Leu-Arg-MNA], the “hydrolysis of substrate peptide” value on DPPI (substrate concentration 100 μM) and on DPPI (substrate concentration 500 μM) was 0 throughout.
With `COc1cc(NC(=O)C(CCCN=C(N)N)NC(=O)CN)cc2ccccc12` (stereo not drawn) [Gly-Arg-MNA], the “hydrolysis of substrate peptide” value on DPPI (substrate concentration 100 μM) is recorded as 2500; at DPPI (substrate concentration 500 μM), 4750.
Take `Cc1cc(=O)oc2cc(NC(=O)[C@H](Cc3ccccc3)NC(=O)CN)ccc12` [Gly-Phe-AMC] (H-Gly-Phe-{AMC}): the “hydrolysis of substrate peptide” value at DPPI (substrate concentration 100 μM) came to 3500; on DPPI (substrate concentration 500 μM) it was 6120.
Regarding `COc1cc(NC(=O)C(Cc2ccccc2)NC(=O)CN)cc2ccccc12` (stereo not drawn) [Gly-Phe-MNA], the entries for the “hydrolysis of substrate peptide” value on DPPI (substrate concentration 100 μM) and at DPPI (substrate concentration 500 μM) were 3500 and 5750, respectively.
Take `NCC(=O)N[C@@H](Cc1ccccc1)C(=O)Nc1ccc([N+](=O)[O-])cc1` [Gly-Phe-pNA] (H-Gly-Phe-pNA): the “hydrolysis of substrate peptide” value at DPPI (substrate concentration 100 μM) was 120; on DPPI (substrate concentration 500 μM), 380.
In the case of `NCC(=O)N[C@@H](Cc1ccccc1)C(=O)Nc1ccc2ccccc2c1` [Gly-Phe-βNA] (H-Gly-Phe-βNA), the “hydrolysis of substrate peptide” value on DPPI (substrate concentration 100 μM) was determined as 2380; at DPPI (substrate concentration 500 μM), 4380.
Turning to `COc1cc(NC(=O)[C@@H]2CCCN2C(=O)CN)cc2ccccc12` [Gly-Pro-MNA], the “hydrolysis of substrate peptide” value at DPPI (substrate concentration 100 μM) and at DPPI (substrate concentration 500 μM) was 0 each time.
Take `NCC(=O)N1CCC[C@H]1C(=O)Nc1ccc2ccccc2c1` [Gly-Pro-βNA] (H-Gly-Pro-βNA): the “hydrolysis of substrate peptide” value on DPPI (substrate concentration 100 μM) and on DPPI (substrate concentration 500 μM) was 0 each time.
Take `NCC(=O)Nc1ccc2ccccc2c1` [Gly-βNA]: the “hydrolysis of substrate peptide” value at DPPI (substrate concentration 100 μM) and at DPPI (substrate concentration 500 μM) was 0 throughout.
On to `O=C(O)CI` [Iodoacetic acid], for which, in experiment [1] (pH 5.5), the “effect on DPPI activity (in words)” value was “potently inhibited”. In experiment [1] (read-out: Percentage control activity), the remaining activity at 1000 µM amounted to 10%.
`CC(C)C[C@H](N)C(=O)Nc1ccc2ccccc2c1` [Leu-βNA]: the “hydrolysis of substrate peptide” value at DPPI (substrate concentration 100 μM) and at DPPI (substrate concentration 500 μM) was 0 each time.
With `COC([CH2][Hg+])CNC(=O)c1ccccc1OCC(=O)O.[OH-]` (stereo not drawn) [Mersalyl acid], the Percentage control activity in experiment [1] (setting [5]) worked out at 3%. For the same compound, the “effect on DPPI activity (in words)” value in experiment [1] (screening conditions pH 5.5) was “potently inhibited”.
For the compound `CCN1C(=O)C=CC1=O` [N-Ethylmaleimide], the remaining activity at 1000 µM in experiment [1] (setting [4]) was 63%. Further, in experiment [1] (screening conditions pH 5.5), the “effect on DPPI activity (in words)” value is “inhibited”.
With `N[C@@H](Cc1ccccc1)C(=O)Nc1ccc2ccccc2c1` [Phe-βNA], the “hydrolysis of substrate peptide” value at DPPI (substrate concentration 100 μM) and at DPPI (substrate concentration 500 μM) was 0 each time.
On to `Cc1cc(=O)oc2cc(NC(=O)[C@H](CCCN=C(N)N)NC(=O)[C@H](Cc3ccccc3)NC(=O)[C@@H]3CCCN3)ccc12` [Pro-Phe-Arg-AMC] (H-Pro-Phe-Arg-{AMC}), for which the “hydrolysis of substrate peptide” value at DPPI (substrate concentration 100 μM) and at DPPI (substrate concentration 500 μM) was 0 each time.
As to `O=C(Nc1ccc2ccccc2c1)[C@@H]1CCCN1` [Pro-βNA], the “hydrolysis of substrate peptide” value on DPPI (substrate concentration 100 μM) and on DPPI (substrate concentration 500 μM) was 0 each time.
In the case of `COc1cc(NC(=O)C(Cc2ccc(O)cc2)NC(=O)C(N)CO)cc2ccccc12` (stereo not drawn) [Ser-Tyr-MNA], the figures for the “hydrolysis of substrate peptide” value on DPPI (substrate concentration 100 μM) and at DPPI (substrate concentration 500 μM) were 1000 and 1750, respectively.
`N[C@@H](CO)C(=O)N[C@@H](Cc1ccc(O)cc1)C(=O)Nc1ccc2ccccc2c1` [Ser-Tyr-βNA] (H-Ser-Tyr-βNA): the “hydrolysis of substrate peptide” value amounted to 1750 on DPPI (substrate concentration 100 μM) and 2000 on DPPI (substrate concentration 500 μM).
Take `C[C@H](NC(=O)CCC(=O)O)C(=O)N[C@@H](C)C(=O)N[C@@H](C)C(=O)Nc1ccc([N+](=O)[O-])cc1` [Suc-Ala-Ala-Ala-pNA]: the “hydrolysis of substrate peptide” value at DPPI (substrate concentration 100 μM) and at DPPI (substrate concentration 500 μM) was 0 in each case.
On to `C[C@H](NC(=O)CCC(=O)O)C(=O)N[C@@H](C)C(=O)N1CCC[C@H]1C(=O)N[C@@H](Cc1ccccc1)C(=O)Nc1ccc([N+](=O)[O-])cc1` [Suc-Ala-Ala-Pro-Phe-pNA] (Suc-AAPF-pNA), for which the “hydrolysis of substrate peptide” value at DPPI (substrate concentration 100 μM) and at DPPI (substrate concentration 500 μM) was 0 in each case.
For the compound `Cc1ccc(S(=O)(=O)NC(CCCCN)C(=O)CCl)cc1` (stereo not drawn) [TLCK, 1-chloro-3-tosylamido-7-amino-2-heptanone], the Percentage control activity in experiment [1] (setting [5]) is given as 5%. In experiment [1] (screening conditions pH 5.5), the “effect on DPPI activity (in words)” value is “potently inhibited”.
`CC(C)C[C@H](NC(=O)[C@@H](N)CC(C)C)C(=O)OCc1ccccc1` [benzyl ester derivative of Leu--Leu--OMe]: in the experiment with NK cells, the “more potent than Leu--Leu--OMe in mediating depletion of NK cells” value was 5 fold.
Regarding `CCCC[C@H](NC(=O)[C@@H](N)CCCC)C(=O)OC` [norleucyl-norleucine methyl ester], in the experiment on NK cells, the “more active than Leu--Leu--OMe” value came to 2 fold.
For the compound Cystatin [listing 1 of 2 here], in experiment [1] (inhibitor 50 μg/ml, preincubated 15 min at 37° C.), the Percentage control activity stood at 32%. The “effect on DPPI activity (in words)” value in experiment [1] (screening conditions pH 5.5) is on record as “potently inhibited”.
In experiment [2], Cystatin [listing 2 of 2 here] yielded a Percentage control activity of purified human DPPI (% of control activity (at 50 µg/ml)) of 32.
In experiment [3], “murine dipeptidyl peptidase-I (from UniProt P97821) (enzyme)” showed a generation of BLT esterase activity in murine alloreactive CD8(+) T cells with DPPI inhibited of 3.3.

Source of the values: patent US5602102A, “Dipeptidyl peptidase-I inhibitors and uses thereof” (Board of Regents, The Univ. of TX System, priority 1992, dated 1997).
